Experimental findings from patent publication US6683107B2, “Furans, benzofurans, and thiophenes useful in the treatment of insulin resistance and hyperglycemia” (Wyeth, priority 1998, dated 2004) are described below.

Each structure is given as a SMILES string.

In series [1] the target is T1, human recombinant PTP1B (hPTP1B) (Homo sapiens, UniProt P18031).
T1 construct: made in house
T1 sequence (P18031 1-435): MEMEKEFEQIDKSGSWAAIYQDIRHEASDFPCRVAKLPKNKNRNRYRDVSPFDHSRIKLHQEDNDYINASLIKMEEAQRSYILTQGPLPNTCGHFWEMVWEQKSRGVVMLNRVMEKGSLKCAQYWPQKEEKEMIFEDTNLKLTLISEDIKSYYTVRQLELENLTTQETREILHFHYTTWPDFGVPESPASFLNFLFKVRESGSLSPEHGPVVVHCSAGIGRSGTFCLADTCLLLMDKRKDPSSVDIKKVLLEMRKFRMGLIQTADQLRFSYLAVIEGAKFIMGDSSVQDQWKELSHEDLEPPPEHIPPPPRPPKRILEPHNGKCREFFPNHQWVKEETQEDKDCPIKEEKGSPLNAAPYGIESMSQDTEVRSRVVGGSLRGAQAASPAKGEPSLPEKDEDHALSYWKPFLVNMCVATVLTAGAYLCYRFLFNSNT
As to the kind of experiment: Inhibition of tri-phosphorylated insulin receptor dodecaphosphopeptide dephosphorylation by hPTP1B (malachite green phosphate detection). The note with it: for IC50: recombinant PTP1B, insulin receptor 1142-1153 triphosphopeptide substrate, 37° C., 30 min, pH 7.4; for inhibition at 1 µM: compound at 1.0 μM, percent of phosphatase control. Type of series: biochemical.

Regarding `CC(=O)Oc1cc(S(=O)(=O)Oc2ccc(C(=O)c3c(Cc4ccccc4Br)oc(C)c3C)cc2C2CCCC2)ccc1C(=O)O` [Example 25, 2-Acetoxy-4-{4-[2-(2-Bromo-benzyl)-4,5-dimethyl-fuiran-3-carbonyl]-2-cyclopentyl-phenoxysulfonyl}-benzoic acid], the melting point (in general, the temperature of the solid-liquid transition) turned out to be 79 °C. Moreover, the IC50 – broadly, the point on the concentration scale where inhibition reaches its midpoint – in series [1] was determined as 241 nM.

Regarding `CCCCc1oc2ccccc2c1CCc1ccc(OS(=O)(=O)c2ccc(C(=O)O)c(OC(C)=O)c2)cc1` [Example 26, 2-Acetoxy-4-{4-[2-(2-butyl-benzofuran-3-yl)-ethyl]-phenoxysulfonyl}-benzoic acid], the melting point fell in the range of 54 to 57 °C. Also, the inhibition (as a rule, how much of the control response was suppressed) at 1 µM in series [1] stood at 51.4%.

With `Cc1sc(Cc2ccc(Br)cc2)c(C(=O)c2ccc(OS(=O)(=O)c3cnn(C)c3)c(C3CCCC3)c2)c1C` [Example 27, 1-Methyl-1H-pyrazole-4-sulfonic acid 4-[2-(4-bromo-benzyl)-4,5-dimethyl-thiophene-3-carbonyl]-2-cyclopentyl-phenyl ester], the melting point lay within 55 to 60 °C. Besides, in series [1], the inhibition at 1 µM came to 22.7%.

As for `CCCCc1oc2ccccc2c1Cc1ccc(OS(=O)(=O)c2ccc(C(=O)O)c(O)c2)cc1` [Example 28, 4-[4-(2-Butyl-benzofuran-3-ylmethyl)-phenoxysulfonyl]-2-hydroxy-benzoic acid], the melting point is 135 to 138 °C. Further, in series [1], the IC50 came out at 577 nM.
